# Data taken from patent publication US20230047825A1, “ANTIMICROBIAL PEPTIDES” (priority 2019, published 2023).
# Where a SMILES comes first, the peptide text is derived from it.
# What was measured:
# [1] = Maximum Tolerated Dose (MTD) assessment, IV TID q8h: mortality, body weight, clinical observations; assay type: in vivo, mouse; parameters: key to Irritability / Hyperactivity / Inc. Startle / Inc. Touch / Dec. Startle Response / Dec. Touch Response / Inc. Exploration / Dec. Exploration / Pinna / Placing / Tremor / Dec. Spont. Activity / Straub Tail / Reactivity / Righting / Ataxia / Convulsion C.T.C-T / Low Limb Post / Abdominal Tone / Limb Tone / Grip Strength / Salivation F.V. / Lacrimation / Diarrhea / Body Temperature / Piloerection / Inc. Palpebral Size / Dec. Palpebral Size / Others / Death: “−” no effects; “±”: Slight to moderate effects; +: Severe effects; “C.”: Cyanosis; “D.”: Depth; E: Edema; conditions: for Dec. Exploration / Dec. Startle Response / Dec. Touch Response / Hyperactivity / Inc. Exploration / Inc. Startle / Inc. Touch / Irritability / Pinna / Placing: BEHAVIORAL; for Ataxia / Convulsion C.T.C-T / Dec. Spont. Activity / Grip Strength / Limb Tone / Low Limb Post / Reactivity / Righting / Straub Tail / Tremor / Abdominal Tone: NEUROLOGIC
# Method: Tolerability analysis was conducted to determine the upper limit of D-PLEUROCIDIN-KR dosage. Test article solutions were intravenously (IV) administered to immunocompetent ICR mice with the dose schedule and concentrations indicated in the study design in the table below.
# The animals were not infected. Doses were IV administered thrice (TID) with 8 h intervals (q8h) between doses. Animals were humanely euthanized after 3 days of the last treatment or at humane endpoints.
# The MTD assessment was performed with immunocompetent female ICR mice, weighing 22 f 2 g. All animals were specific pathogen free.
# Test articles were administered to animals by IV injections following the dose schedule, volumes, and concentrations indicated the Table above for MTD study. […] Animals were humanely euthanized if severe acute toxicity was observed during the experimental period.
# The adverse effects were monitored at 5 minutes via cage-side observation after each subsequent IV administration on Day 1. Animals were observed again for mortality at 72 h after the last treatment. Body weights were recorded before each treatment and at 72 h after the last treatment. If overt toxicity was observed after the 1st or 2nd dose of a group, the 2nd or 3rd dose of that group was not administered.
# Any adverse events observed were summarized. List of scores from observation assessments were also recorded.
# [2] = system: panel of Gram-negative or Gram-positive pathogens; conditions: RPMI (5% FCS); Gram-negative isolates, all but the P. aeruginosa isolates
# Method: MICs were determined on the same plates as the FICs to increase reproducibility.
# Methods: The natural AMP (termed AMP1) was modified to produce synthetic variants, AMPs 1a, 2a, 2b, 3a and 3b. Minimum inhibitory concentrations (MICs) were determined using the microbroth dilution assay with Mueller Hinton broth (MHB) or RPMI (with 5% FBS) and stability in serum was tested by conducting MICs in MHB containing 10% FBS. Synergy experiments were performed following a checkerboard protocol. Cytotoxicity was tested against HEK293 and HeLa immortalised human cell-lines using the XTT viability stain and by quantifying haemolysis of human red blood cells. Patch clamp analysis was performed using the Port-a-Patch® automated patch-clamp system on DPhPE/DPhPG (model for a Gram-negative plasma membrane) or DPhPG (Gram-positive) model membranes challenged with peptide. The murine lung infection model was performed using the agar bead model with Staphylococcus aureus strain NCTC 13616 (EMRSA-15).
# [3] = AUTONOMIC, 10 mg/kg IV, 5 minutes after 1st dosing, ICR mice, animals No. 1-4
# [4] = 5 mg/kg IV, 5 minutes after 1st dosing, ICR mice, animals No. 1-4
# [5] = 10 mg/kg IV, 5 minutes after 1st dosing, ICR mice, animals No. 1-4
# [6] = 10 mg/kg IV, 5 minutes after 1st dosing, ICR mice, animals No. 1-4, 10 mg/kg
compound,measurement,setting,value
CC(C)C[C@@H](NC(=O)[C@@H](Cc1ccc(O)cc1)NC(=O)[C@@H](Cc1c[nH]cn1)NC(=O)[C@H](NC(=O)[C@@H](CC(C)C)NC(=O)[C@@H](C)NC(=O)[C@@H](C)NC(=O)[C@@H](CCCNC(=N)N)NC(=O)CNC(=O)[C@H](NC(=O)[C@@H](Cc1c[nH]cn1)NC(=O)[C@@H](CCCNC(=N)N)NC(=O)CNC(=O)[C@H](NC(=O)[C@@H](Cc1c[nH]cn1)NC(=O)[C@@H](C)NC(=O)[C@@H](C)NC(=O)[C@@H](CCCNC(=N)N)NC(=O)[C@@H](CCCNC(=N)N)NC(=O)[C@@H](Cc1ccccc1)NC(=O)[C@@H](Cc1ccccc1)NC(=O)[C@@H](CO)NC(=O)CNC(=O)[C@@H](Cc1c[nH]c2ccccc12)NC(=O)CN)C(C)C)C(C)C)[C@H](C)O)C(N)=O [D-pleurocidin-KR] (HELM PEPTIDE1{G.[dW].G.[dS].[dF].[dF].[dR].[dR].[dA].[dA].[dH].[dV].G.[dR].[dH].[dV].G.[dR].[dA].[dA].[dL].[dT].[dH].[dY].[dL].[am]}$$$$V2.0; N-terminus assumed),Diarrhea,[1]; [3],−
same,Inc. Palpebral Size,[1]; [3],−
same,Lacrimation,[1]; [3],−
same,Others,[1]; [3],E
same,Piloerection,[1]; [3],−
same,Respiration,[1]; [3],D±
same,Salivation F.V.,[1]; [3],−
same,Skin Color,[1]; [3],C±
same,Death,"[1]; AUTONOMIC, 30 mg/kg IV, 5 minutes after 1st dosing, ICR mice, animals No. 1-4",+
same,Dec. Exploration,[1]; [4],−
same,Dec. Startle Response,[1]; [4],−
same,Dec. Touch Response,[1]; [4],−
same,Hyperactivity,[1]; [4],−
same,Inc. Exploration,[1]; [4],−
same,Inc. Startle,[1]; [4],−
same,Inc. Touch,[1]; [4],−
same,Irritability,[1]; [4],−
same,Pinna,[1]; [4],−
same,Placing,[1]; [4],−
same,Hyperactivity,[1]; [5],−
same,Inc. Exploration,[1]; [5],−
same,Inc. Startle,[1]; [5],−
same,Inc. Touch,[1]; [5],−
same,Irritability,[1]; [5],−
same,Dec. Exploration,[1]; [6],± and +
same,Dec. Startle Response,[1]; [6],− and ±
same,Dec. Touch Response,[1]; [6],± and +
same,Pinna,[1]; [6],± and +
same,Placing,[1]; [6],± and −
same,Ataxia,[1]; [4],−
same,Convulsion C.T.C-T,[1]; [4],−
same,Dec. Spont. Activity,[1]; [4],−
same,Grip Strength,[1]; [4],−
same,Limb Tone,[1]; [4],−
same,Low Limb Post,[1]; [4],−
same,Reactivity,[1]; [4],−
same,Righting,[1]; [4],−
same,Straub Tail,[1]; [4],−
same,Tremor,[1]; [4],−
same,Abdominal Tone,"[1]; 5 mg/kg IV, 5 minutes after 1st dosing, ICR mice, animals No. 1-4, 5 mg/kg",− and ±
same,Ataxia,[1]; [5],±
same,Convulsion C.T.C-T,[1]; [5],−
same,Dec. Spont. Activity,[1]; [5],±
same,Limb Tone,[1]; [5],+
same,Reactivity,[1]; [5],−
same,Righting,[1]; [5],−
same,Straub Tail,[1]; [5],−
same,Tremor,[1]; [5],−
same,Abdominal Tone,[1]; [6],− and + and ±
same,Grip Strength,[1]; [6],± and −
same,Low Limb Post,[1]; [6],± and −
same,in vivo therapeutic index,"[1]; before dose optimisation, tolerated dose vs effective dose",approximately 20 fold
same,effective concentration (MIC) in RPMI,[2],≤ 4 µg/mL
